Measured values reported in patent publication US12436156B2, “Methods of determining pH and calcium or chloride concentration in samples” (The University of Chicago, priority 2018, dated 2025).
Where a name gives a salt, the structure may show the parent alone.

B1: rhASM: Recombinant human acid sphingomyelinase, enzyme replacement therapy for NP-A/B (protein, UniProt P17405 47-631, looked up)
Sphingomyelin …: LALSDSRVLWAPAEAHPLSPQGHPARLHRIVPRLRDVFGWGNLTCPICKGLFTAINLGLKKEPNVARVGSVAIKLCNLLKIAPPAVCQSIVHLFEDDMVEVWRRSVLSPSEACGLLLGSTCGHWDIFSSWNISLPTVPKPPPKPPSPPAPGAPVSRILFLTDLHWDHDYLEGTDPDCADPLCCRRGSGLPPASRPGAGYWGEYSKCDLPLRTLESLLSGLGPAGPFDMVYWTGDIPAHDVWHQTRQDQLRALTTVTALVRKFLGPVPVYPAVGNHESTPVNSFPPPFIEGNHSSRWLYEAMAKAWEPWLPAEALRTLRIGGFYALSPYPGLRLISLNMNFCSRENFWLLINSTDPAGQLQWLVGELQAAEDRGDKVHIIGHIPPGHCLKSWSWNYYRIVARYENTLAAQFFGHTHVDEFEVFYDEETLSRPLAVAFLAPSATTYIGLNPGYRVYQIDGNYSGSSHVVLDHETYILNLTQANIPGAIPHWQLLYRARETYGLPNTLPTAWHNLVYRMRGDMQLFQTFWFLYHKGHPPSEPCGTPCRLATLCAQLSARADSPALCRHLMPDGSLPEAQSLWPRPLFC

Legend:
Format in all cases: cell-based, human
lysosomes in HDF cells [1] = test: 2-IM upon addition of lysosomal proton pump and ion channel blocker; conditions: ChloropHoreLy labelled, 500 nM bafilomycin A1 or 300 μM NPPB, 45 min
Experimental: Lysosomal pH and chloride measurements. Fibroblast cells are pulsed with 2 μM of I^mLy, ChloropHore or ChloropHoreLy for 1 h, chased for 9 h (30 min pulse and 1 h chase for J774. A1, BHK-21 and T47D cells) and then washed with 1×PBS and subjected for imaging.
2-IM upon addition of lysosomal proton pump and ion channel blocker. Upon lysosome labeling, final concentration of 500 nM bafilomycinA1 and 300 μM of 5-nitro-2-(3-phenylpropyl-amino) benzoic acid (NPPB) were added to cells and incubated for 45 min. Cells was then washed with PBS and imaged in Hank's Balanced Salt Solution (HBSS) containing the respective blocker compounds.
(§1) Image analysis for pH and sensors. Images were analyzed with ImageJ/Fiji 2.0.0-rc-54/1.51h. pH and chloride measurements are performed as described previously. To generate a density plot to represent lysosomal populations, the individual D/A (Y-axis) versus the corresponding R/G (X-axis) values was first plotted for each lysosome that was obtained for a given fibroblast sample comprising ˜60 cells and ˜600 lysosomes. Density plots were generated using 2D Kernel Density plot on Origin 2018 SR1 b9.5.1.195 (OriginLab, USA). […] To normalize between experiments done on different days, the lysosomal pH and Cl− of a sample of normal HDF cells was always measured as well, the density plot of which served as the reference. […]

lysosomes in HDF cells [2] = test: 2-IM in pharmacologically induced cell culture models for NP-A/B and NP-C; conditions: HDF cells from a healthy individual; 65 μM AH or 20 μM U18666A, 24 h
Experimental: Niemann Pick type A/B and C models were prepared according to the previous reported method. Cells were incubated with 65 μM of the acid sphingomyelinase (ASM) inhibitor amitriptyline (AH) and 20 μM of the NPC1 inhibitor U18666A for 24 h to create a NP-A/B and NP-C models respectively. The cells are pulsed with 2 μM of ChloropHoreLY and either 65 μM AH or 20 μM U18666A for 1 h, chased with either 65 μM AH or 20 μM U18666A for 9 h and then washed with 1×PBS and imaged.
Image analysis for pH and sensors. Images were analyzed with ImageJ/Fiji 2.0.0-rc-54/1.51h. pH and chloride measurements are performed as described previously. To generate a density plot to represent lysosomal populations, the individual D/A (Y-axis) versus the corresponding R/G (X-axis) values was first plotted for each lysosome that was obtained for a given fibroblast sample comprising ˜60 cells and ˜600 lysosomes. Density plots were generated using 2D Kernel Density plot on Origin 2018 SR1 b9.5.1.195 (OriginLab, USA). This converted the individual scatter points into a population matrix as a probability density function. The density plot is then pseudo colored to represent high density in red (values close to 1) and low density in blue (values closer to 0). Those points with <10% probability on the plot were discarded. For normalization between days, the point of highest density (value =1) of normal HDF cells was designated as the center of the plot with x,y coordinates (1,1). To normalize between experiments done on different days, the lysosomal pH and Cl− of a sample of normal HDF cells was always measured as well, the density plot of which served as the reference. All density plots acquired on the same day with the same settings were thus normalized to the HDF cell density plots to enable comparison of data across different days.

[3] = tested on: lysosomes of NP-C patient fibroblasts; test: Lysosomal population rescue using β-CD in NP-C patient fibroblasts (2-IM); conditions: NP-C patient samples mutated in NPC1 or NPC2, 50 μM, 24 h
Experimental: (§2) Lysosomal population rescue using ASM and β-CD. Recombinant human acid sphingomyelinase was incubated with NP-A/B patient cells according to the previous method. Primary human fibroblasts derived from NP-A/B patients were maintained in DMEM medium with 1% FBS for 24 h. The medium was then changed to DMEM with 1% FBS containing 0.2% BSA and 5 μg of rhASM. After 24 h, the cells are pulsed with 2 μM of ChloropHoreLy for 1 h, chased for 9 h and then washed with 1×PBS and imaged. Primary human fibroblasts from NP-C patient were incubated with 50 μM of o-Hydroxypropyl-β-cyclodextrin (β-CD) for 24 h. The cells are pulsed with 2 μM of ChloropHoreLy and 50 μM of β-CD for 1 h, chased with 50 μM of β-CD for 9 h and then washed with 1×PBS and imaged.
as §1, with “lysosomes.” for “lysosomes. Density plots were generated using 2D Kernel Density plot on Origin 2018 SR1 b9.5.1.195 (OriginLab, USA).”

[4] = tested on: lysosomes of NP-A and NP-B patient fibroblasts; test: Lysosomal population rescue using ASM in NP-A/B patient fibroblasts (2-IM); conditions: 5 μg rhASM, 24 h
Experimental: as §2
as §1, with “lysosomes.” for “lysosomes. Density plots were generated using 2D Kernel Density plot on Origin 2018 SR1 b9.5.1.195 (OriginLab, USA).”

Molecule	high Cl-, high acidity lysosome population (2-IM profile) (lysosomes in HDF cells [1])	high chloride, high acidity lysosome population (2-IM profile) (lysosomes in HDF cells [2])	lysosome population in 2-IM profile (lysosomes in HDF cells [2])	other results
O=C(O)c1cc([N+](=O)[O-])ccc1NCCCc1ccccc1 [5-nitro-2-(3-phenylpropylamino) benzoic acid]	lost	–	–	–
CCN(CC)CCO[C@H]1CC[C@@]2(C)C(=CC[C@@H]3[C@@H]2CC[C@]2(C)C(=O)CC[C@@H]32)C1 [U18666A]	–	depletion	monodisperse	–
CN(C)CCC=C1c2ccccc2CCc2ccccc21 [amitriptyline hydrochloride]	–	depletion	monodisperse	–
CO/C1=C\C(C)=C\[C@@H](C)[C@@H](O)[C@@H](C)C/C(C)=C/C=C/[C@H](OC)[C@@H]([C@@H](C)[C@@H](O)[C@H](C)[C@@]2(O)C[C@@H](O)[C@H](C)[C@@H](C(C)C)O2)OC1=O [bafilomycin Al]	lost	–	–	–
o-2-hydroxypropyl-β-cyclodextrin [RCD]	–	–	–	lysosomes with higher lumenal Cl- and H+ content (2-IM profile) [3]: appearance; monodispersity of the 2-IM profile [3]: loss of monodispersity
B1	–	–	–	high chloride, high acidity lysosome population (2-IM profile) [4]: reemergence
